Assay [1] relates to acetylcholinesterase (AChE). Nature of the assay: standard Abcam fluorescent AChE assay in a microplate (plate reader). Type of assay: biochemical. The conditions noted are these: human tears; microtiter plate format. An excerpt: In addition, we performed side-by-side measurements of a series of samples including the human sample matrices and recombinantly expressed AChE with the SpinDx assay and with a traditional assay including a microtiter plate and plate reader (FIG. 7A-7B). The two assay formats show similar trends in the levels of activity, although certain samples (e.g., unkilled CSF) look dramatically higher in SpinDx than in the plate format.

Assay [2] relates to acetylcholinesterase (AChE). Briefly: SpinDx pulldown AChE activity assay in human sample matrices with or without inhibition by paraoxon. The class given is biochemical. The conditions noted are these: pooled human tears, acetylthiocholine fluorogenic substrate. An excerpt:
For this reason, we developed a SpinDx-based assay to provide information on (non-specific) inhibition of cholinesterase (ChE), such that the SpinDx test at a minimum provides information similar to that which can be obtained with the existing Test-mate ChE test, but in a simpler, more portable format. The term “SpinDx-based assay,” as used herein, refers to a bead-based assay format that employs a centrifugal microfluidic disc for transporting such beads (e.g., as described in FIG. 1A-1B and FIG. 3A-3D).
Our SpinDx assay can include components for a fluorescent analog of the Ellman's assay, loaded within the density medium. Upon spinning the disk, the capture beads, but not the blood sample or erythrocytes, will partition into the density medium. […]
We tested the assay extensively in buffer prior to translating to human bodily fluids, using either heat or paraoxon to inhibit the AChE cholinesterase activity. We determined that, in buffer, our limit of detection (LOD) for AChE with the SpinDx assay was between 0.005 and 0.01 mU/mL, with a limit of quantitation (LOQ) of 0.015 to 0.024 mU/mL, depending on the time of incubation (shorter incubations actually gave lower limits of detection and quantitation, perhaps because the fluorogenic assay inherently has a slow signal generation over time due to spontaneous hydrolysis of the substrate). […]

“Also recorded” adds a separate entry of the source.

For `CCOP(=O)(OCC)Oc1ccc([N+](=O)[O-])cc1` [paraoxon], in assay [1], the “reduction (kill) of apparent AChE activity by inhibitor” value was “can't be killed”. The “reduction (kill) of cholinesterase activity by inhibitor” value in assay [2] was “could not be reduced; also recorded: can't be killed”.

Values taken from patent US11680946B1, “Detection of cholinesterase inhibition with microfluidic devices and systems thereof” (priority 2020, dated 2023).
